{"source": "the supplement of paper PMC10307832", "experiment_in_all_cases": "relative viability (nuclei count vs DMSO), 5 days (fraction); higher = more cells survive", "key": {"[1]": {"tested_on": "A-427", "how_it_was_run": "(§1)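 Each reported value is a median over duplicate plates. It expresses relative viability: treated-well nuclei count divided by vehicle-well nuclei count. Lung cancer cell lines in 1536-well plates were dosed by pin tool a day after seeding, alone with one drug or with a fixed anchor-drug dose plus five library-drug doses (not always all listed) in √10 steps, and nuclei were counted after 5 days.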"}, "[2]": {"tested_on": "CAL-12T", "how_it_was_run": "as §1"}, "[3]": {"tested_on": "COR-L 105", "how_it_was_run": "as §1"}, "[4]": {"tested_on": "COR-L23", "how_it_was_run": "as §1"}, "[5]": {"tested_on": "EPLC-272H", "how_it_was_run": "as §1"}, "[6]": {"tested_on": "HOP-62", "how_it_was_run": "as §1"}, "[7]": {"tested_on": "LCLC-103H", "how_it_was_run": "as §1"}, "[8]": {"tested_on": "LXF-289", "how_it_was_run": "as §1"}, "[9]": {"tested_on": "NCI-H1395", "how_it_was_run": "as §1"}, "[10]": {"tested_on": "NCI-H1563", "how_it_was_run": "as §1"}, "[11]": {"tested_on": "NCI-H1651", "how_it_was_run": "as §1"}, "[12]": {"tested_on": "NCI-H1975", "how_it_was_run": "as §1"}, "[13]": {"tested_on": "NCI-H1993", "how_it_was_run": "as §1"}, "[14]": {"tested_on": "NCI-H2023", "how_it_was_run": "as §1"}, "[15]": {"tested_on": "NCI-H2085", "how_it_was_run": "as §1"}, "[16]": {"tested_on": "NCI-H2087", "how_it_was_run": "as §1"}, "[17]": {"tested_on": "NCI-H2170", "how_it_was_run": "as §1"}, "[18]": {"tested_on": "NCI-H2342", "how_it_was_run": "as §1"}, "[19]": {"tested_on": "NCI-H3122", "how_it_was_run": "as §1"}, "[20]": {"tested_on": "NCI-H596", "how_it_was_run": "as §1"}, "[21]": {"tested_on": "NCI-H647", "how_it_was_run": "as §1"}, "[22]": {"tested_on": "NCI-H650", "how_it_was_run": "as §1"}, "[23]": {"tested_on": "PC-14", "how_it_was_run": "as §1"}, "[24]": {"tested_on": "RERF-LC-KJ", "how_it_was_run": "as §1"}, "[25]": {"tested_on": "SK-MES-1", "how_it_was_run": "as §1"}}}
{"smiles": "CCCCCCCCCCCC1=C(O)C(=O)C=C(O)C1=O", "note": "[Embelin] + Nc1nc2[nH]cc(CCc3ccc(C(=O)N[C@@H](CCC(=O)O)C(=O)O)cc3)c2c(=O)[nH]1 [Pemetrexed] (partner 0.2 µM)", "values": [{"measurement": "relative viability", "setting": "[1]; first compound 0.08 µM", "result": 0.993}, {"measurement": "relative viability", "setting": "[1]; first compound 0.8 µM", "result": 1.07}, {"measurement": "relative viability", "setting": "[1]; first compound 2.53 µM", "result": 0.963}, {"measurement": "relative viability", "setting": "[1]; first compound 8 µM", "result": 0.502}, {"measurement": "relative viability", "setting": "[2]; first compound 0.08 µM", "result": 1.11}, {"measurement": "relative viability", "setting": "[2]; first compound 0.8 µM", "result": 1.4}, {"measurement": "relative viability", "setting": "[2]; first compound 2.53 µM", "result": 1.1}, {"measurement": "relative viability", "setting": "[2]; first compound 8 µM", "result": 1.06}, {"measurement": "relative viability", "setting": "[3]; first compound 0.08 µM", "result": 1.15}, {"measurement": "relative viability", "setting": "[3]; first compound 0.8 µM", "result": 1.21}, {"measurement": "relative viability", "setting": "[3]; first compound 2.53 µM", "result": 1}, {"measurement": "relative viability", "setting": "[3]; first compound 8 µM", "result": 1.08}, {"measurement": "relative viability", "setting": "[4]; first compound 0.08 µM", "result": 0.196}, {"measurement": "relative viability", "setting": "[4]; first compound 0.8 µM", "result": 0.196}, {"measurement": "relative viability", "setting": "[4]; first compound 2.53 µM", "result": 0.201}, {"measurement": "relative viability", "setting": "[4]; first compound 8 µM", "result": 0.191}, {"measurement": "relative viability", "setting": "[5]; first compound 0.08 µM", "result": 0.361}, {"measurement": "relative viability", "setting": "[5]; first compound 0.8 µM", "result": 0.302}, {"measurement": "relative viability", "setting": "[5]; first compound 2.53 µM", "result": 0.331}, {"measurement": "relative viability", "setting": "[5]; first compound 8 µM", "result": 0.247}, {"measurement": "relative viability", "setting": "[6]; first compound 0.08 µM", "result": 0.384}, {"measurement": "relative viability", "setting": "[6]; first compound 0.8 µM", "result": 0.365}, {"measurement": "relative viability", "setting": "[6]; first compound 2.53 µM", "result": 0.308}, {"measurement": "relative viability", "setting": "[6]; first compound 8 µM", "result": 0.303}, {"measurement": "relative viability", "setting": "[7]; first compound 0.08 µM", "result": 0.49}, {"measurement": "relative viability", "setting": "[7]; first compound 0.8 µM", "result": 0.485}, {"measurement": "relative viability", "setting": "[7]; first compound 2.53 µM", "result": 0.449}, {"measurement": "relative viability", "setting": "[7]; first compound 8 µM", "result": 0.458}, {"measurement": "relative viability", "setting": "[8]; first compound 0.08 µM", "result": 0.863}, {"measurement": "relative viability", "setting": "[8]; first compound 0.8 µM", "result": 0.915}, {"measurement": "relative viability", "setting": "[8]; first compound 2.53 µM", "result": 0.866}, {"measurement": "relative viability", "setting": "[8]; first compound 8 µM", "result": 1.08}, {"measurement": "relative viability", "setting": "[9]; first compound 0.08 µM", "result": 0.828}, {"measurement": "relative viability", "setting": "[9]; first compound 0.8 µM", "result": 1.03}, {"measurement": "relative viability", "setting": "[9]; first compound 2.53 µM", "result": 0.856}, {"measurement": "relative viability", "setting": "[9]; first compound 8 µM", "result": 0.585}, {"measurement": "relative viability", "setting": "[10]; first compound 0.08 µM", "result": 0.742}, {"measurement": "relative viability", "setting": "[10]; first compound 0.8 µM", "result": 0.767}, {"measurement": "relative viability", "setting": "[10]; first compound 2.53 µM", "result": 0.693}, {"measurement": "relative viability", "setting": "[10]; first compound 8 µM", "result": 0.713}, {"measurement": "relative viability", "setting": "[11]; first compound 0.08 µM", "result": 0.58}, {"measurement": "relative viability", "setting": "[11]; first compound 0.8 µM", "result": 0.613}, {"measurement": "relative viability", "setting": "[11]; first compound 2.53 µM", "result": 0.656}, {"measurement": "relative viability", "setting": "[11]; first compound 8 µM", "result": 0.642}, {"measurement": "relative viability", "setting": "[12]; first compound 0.08 µM", "result": 0.313}, {"measurement": "relative viability", "setting": "[12]; first compound 0.8 µM", "result": 0.286}, {"measurement": "relative viability", "setting": "[12]; first compound 2.53 µM", "result": 0.285}, {"measurement": "relative viability", "setting": "[12]; first compound 8 µM", "result": 0.311}, {"measurement": "relative viability", "setting": "[13]; first compound 0.08 µM", "result": 0.609}, {"measurement": "relative viability", "setting": "[13]; first compound 0.8 µM", "result": 0.568}, {"measurement": "relative viability", "setting": "[13]; first compound 2.53 µM", "result": 0.581}, {"measurement": "relative viability", "setting": "[13]; first compound 8 µM", "result": 0.554}, {"measurement": "relative viability", "setting": "[14]; first compound 0.08 µM", "result": 0.206}, {"measurement": "relative viability", "setting": "[14]; first compound 0.8 µM", "result": 0.244}, {"measurement": "relative viability", "setting": "[14]; first compound 2.53 µM", "result": 0.226}, {"measurement": "relative viability", "setting": "[14]; first compound 8 µM", "result": 0.249}, {"measurement": "relative viability", "setting": "[15]; first compound 0.08 µM", "result": 0.854}, {"measurement": "relative viability", "setting": "[15]; first compound 0.8 µM", "result": 1.01}, {"measurement": "relative viability", "setting": "[15]; first compound 2.53 µM", "result": 0.87}, {"measurement": "relative viability", "setting": "[15]; first compound 8 µM", "result": 0.871}, {"measurement": "relative viability", "setting": "[16]; first compound 0.08 µM", "result": 0.745}, {"measurement": "relative viability", "setting": "[16]; first compound 0.8 µM", "result": 0.517}, {"measurement": "relative viability", "setting": "[16]; first compound 2.53 µM", "result": 0.748}, {"measurement": "relative viability", "setting": "[16]; first compound 8 µM", "result": 0.646}, {"measurement": "relative viability", "setting": "[17]; first compound 0.08 µM", "result": 0.264}, {"measurement": "relative viability", "setting": "[17]; first compound 0.8 µM", "result": 0.252}, {"measurement": "relative viability", "setting": "[17]; first compound 2.53 µM", "result": 0.276}, {"measurement": "relative viability", "setting": "[17]; first compound 8 µM", "result": 0.274}, {"measurement": "relative viability", "setting": "[18]; first compound 0.08 µM", "result": 0.738}, {"measurement": "relative viability", "setting": "[18]; first compound 0.8 µM", "result": 0.806}, {"measurement": "relative viability", "setting": "[18]; first compound 2.53 µM", "result": 0.859}, {"measurement": "relative viability", "setting": "[18]; first compound 8 µM", "result": 0.814}, {"measurement": "relative viability", "setting": "[19]; first compound 0.08 µM", "result": 0.193}, {"measurement": "relative viability", "setting": "[19]; first compound 0.8 µM", "result": 0.202}, {"measurement": "relative viability", "setting": "[19]; first compound 2.53 µM", "result": 0.202}, {"measurement": "relative viability", "setting": "[19]; first compound 8 µM", "result": 0.2}, {"measurement": "relative viability", "setting": "[20]; first compound 0.08 µM", "result": 0.478}, {"measurement": "relative viability", "setting": "[20]; first compound 0.8 µM", "result": 0.507}, {"measurement": "relative viability", "setting": "[20]; first compound 2.53 µM", "result": 0.53}, {"measurement": "relative viability", "setting": "[20]; first compound 8 µM", "result": 0.445}, {"measurement": "relative viability", "setting": "[21]; first compound 0.08 µM", "result": 0.19}, {"measurement": "relative viability", "setting": "[21]; first compound 0.8 µM", "result": 0.246}, {"measurement": "relative viability", "setting": "[21]; first compound 2.53 µM", "result": 0.169}, {"measurement": "relative viability", "setting": "[21]; first compound 8 µM", "result": 0.214}, {"measurement": "relative viability", "setting": "[22]; first compound 0.08 µM", "result": 0.968}, {"measurement": "relative viability", "setting": "[22]; first compound 0.8 µM", "result": 1.17}, {"measurement": "relative viability", "setting": "[22]; first compound 2.53 µM", "result": 0.979}, {"measurement": "relative viability", "setting": "[22]; first compound 8 µM", "result": 0.954}, {"measurement": "relative viability", "setting": "[23]; first compound 0.08 µM", "result": 0.158}, {"measurement": "relative viability", "setting": "[23]; first compound 0.8 µM", "result": 0.126}, {"measurement": "relative viability", "setting": "[23]; first compound 2.53 µM", "result": 0.134}, {"measurement": "relative viability", "setting": "[23]; first compound 8 µM", "result": 0.153}, {"measurement": "relative viability", "setting": "[24]; first compound 0.08 µM", "result": 0.502}, {"measurement": "relative viability", "setting": "[24]; first compound 0.8 µM", "result": 0.498}, {"measurement": "relative viability", "setting": "[24]; first compound 2.53 µM", "result": 0.504}, {"measurement": "relative viability", "setting": "[24]; first compound 8 µM", "result": 0.474}, {"measurement": "relative viability", "setting": "[25]; first compound 0.08 µM", "result": 1.01}, {"measurement": "relative viability", "setting": "[25]; first compound 0.8 µM", "result": 1.05}, {"measurement": "relative viability", "setting": "[25]; first compound 2.53 µM", "result": 0.937}, {"measurement": "relative viability", "setting": "[25]; first compound 8 µM", "result": 0.824}]}
